These results are taken from ChEMBL document CHEMBL1201862, “PubChem BioAssay data set” (2004).

Molecules are shown by their SMILES. The source made the active and inactive calls.

A short description of assay [1]: microbe, parasite or virus in culture. The settings on record: Mycobacterium tuberculosis. It counts as functional.
Assay [2] deals with T1, Calpain-2 catalytic subunit (Sus scrofa, UniProt P43367).
T1 sequence (P43367 whole entry): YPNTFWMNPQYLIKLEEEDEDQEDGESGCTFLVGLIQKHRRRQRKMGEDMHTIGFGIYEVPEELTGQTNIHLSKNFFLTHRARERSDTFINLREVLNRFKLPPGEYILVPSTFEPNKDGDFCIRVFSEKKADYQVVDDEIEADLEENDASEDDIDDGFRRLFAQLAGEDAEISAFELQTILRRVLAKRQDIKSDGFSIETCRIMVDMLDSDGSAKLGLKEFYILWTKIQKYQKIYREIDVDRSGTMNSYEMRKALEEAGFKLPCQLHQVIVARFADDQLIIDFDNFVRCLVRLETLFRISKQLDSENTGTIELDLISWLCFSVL
The assay can be described thus: m-calpain protease blockers, concentration series – biochemical, fluorogenic peptide substrate, dose response (AID 1420). It counts as functional.

The target in assay [3] is T2, Corticotropin-releasing factor receptor 2/Corticotropin-releasing factor-binding protein (Homo sapiens, UniProt P24387+Q13324).
T2 sequence (Q13324 whole entry): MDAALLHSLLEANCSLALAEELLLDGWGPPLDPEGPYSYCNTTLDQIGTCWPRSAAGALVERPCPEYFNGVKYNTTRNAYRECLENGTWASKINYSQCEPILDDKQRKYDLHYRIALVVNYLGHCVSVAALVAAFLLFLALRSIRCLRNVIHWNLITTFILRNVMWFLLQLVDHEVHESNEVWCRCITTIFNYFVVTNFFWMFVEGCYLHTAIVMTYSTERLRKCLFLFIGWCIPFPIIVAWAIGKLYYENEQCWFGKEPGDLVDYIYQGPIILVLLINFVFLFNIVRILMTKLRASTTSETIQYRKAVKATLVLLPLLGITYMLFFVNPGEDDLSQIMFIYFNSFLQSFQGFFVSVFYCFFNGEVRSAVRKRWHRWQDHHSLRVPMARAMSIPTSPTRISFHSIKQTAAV
T2 sequence (P24387 whole entry): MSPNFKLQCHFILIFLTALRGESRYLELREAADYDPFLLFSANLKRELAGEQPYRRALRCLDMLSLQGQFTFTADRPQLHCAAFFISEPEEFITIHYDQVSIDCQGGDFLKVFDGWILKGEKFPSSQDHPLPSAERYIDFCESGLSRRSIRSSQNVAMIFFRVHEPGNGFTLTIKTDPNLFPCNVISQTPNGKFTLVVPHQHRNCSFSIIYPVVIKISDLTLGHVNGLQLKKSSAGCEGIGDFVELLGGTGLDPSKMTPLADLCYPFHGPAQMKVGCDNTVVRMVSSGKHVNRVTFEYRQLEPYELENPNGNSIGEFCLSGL
Put plainly: Dose Response confirmation of uHTS hits for small molecule antagonists of the CRF-binding protein and CRF-R2 receptor complex. It counts as functional. The conditions noted are these: read-out: IC50_Mean.

Assay [4] has as its target T2, Corticotropin-releasing factor receptor 2/Corticotropin-releasing factor-binding protein. Put plainly: activators of CRF receptor 2 with binding protein – uHTS hits, confirmation (AID 602473). It is filed as functional. The settings on record: read-out: EC50_Mean.
The nature of another assay: cells. It is filed as functional.
Another assay addresses Cytochrome P450 2C19 (Homo sapiens, UniProt P33261). The assay can be described thus: Cytochrome panel assay with activity outcomes. Panel member name: p450-cyp2c19 Compounds with AC50 equal or less than 10 uM are considered active. It is filed as functional.
The target in assay [5] is Luciferin 4-monooxygenase (Photinus pyralis, UniProt P08659). The assay can be described thus: inhibition of purified Photinus pyralis luciferase – biochemical, luminescence, dose response (AID 1891).
Assay [6] in a line: Luminescence Cell-Based Dose Confirmation HTS to Identify Inhibitors of Platelet Dense Granule Release. [Related pubchem assays: 1663 (Primary HTS), 1678 (Summary of Project)]. It counts as functional.
Assay [7] deals with T3, Heat shock factor protein 1 (Mus musculus, UniProt P38532).
T3 sequence (P38532 whole entry): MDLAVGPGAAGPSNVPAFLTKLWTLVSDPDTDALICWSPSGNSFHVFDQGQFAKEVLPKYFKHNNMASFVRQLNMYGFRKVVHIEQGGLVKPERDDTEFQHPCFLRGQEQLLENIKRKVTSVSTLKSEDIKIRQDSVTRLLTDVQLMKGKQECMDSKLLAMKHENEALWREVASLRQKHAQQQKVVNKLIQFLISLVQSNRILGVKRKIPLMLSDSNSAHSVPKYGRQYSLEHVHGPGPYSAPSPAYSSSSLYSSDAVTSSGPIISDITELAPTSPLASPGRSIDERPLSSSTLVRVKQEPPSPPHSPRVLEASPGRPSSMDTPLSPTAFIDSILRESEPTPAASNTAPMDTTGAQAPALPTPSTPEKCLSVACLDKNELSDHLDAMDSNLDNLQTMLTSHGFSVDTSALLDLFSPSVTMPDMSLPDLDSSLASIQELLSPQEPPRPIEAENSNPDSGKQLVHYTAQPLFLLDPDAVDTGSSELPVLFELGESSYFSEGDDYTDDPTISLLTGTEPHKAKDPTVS
The assay can be described thus: enhancement of HSF1-driven luciferase signal – cell-based, NIH3T3, luminescence, dose retest, confirmation (AID 435004).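 Note: stress induced by proteasome inhibitor MG132 added 30 min after compound; luciferase reporter driven by HSF1 response element in NIH3T3 cells; actives raise luminescence as potentiators of the MG132 stress response.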 It counts as functional.

Assay [8] in a line: Trypanosoma cruzi growth suppression in host cells – NIH3T3 host cells, beta-gal luminescence, confirmation (AID 2044).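 Note: intracellular parasites grown in NIH/3T3 mouse fibroblasts as host cells; luminescent beta-galactosidase reporter signal from transgenic T. cruzi replicating inside host cells; inhibitors lower the luminescence signal.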 It counts as functional, cell-based.
The nature of assay [9]: NIH3T3 cell viability loss – ATP luminescence, mouse fibroblasts, counter-screen, dose response (AID 2010).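 Note: cells exposed to compound for about 90 hours before reading.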 It is filed as functional, cell-based.
The target in assay [10] is T3, Heat shock factor protein 1. The assay can be described thus: decrease of HSF1-responsive luciferase luminescence – cell-based, NIH3T3, dose retest, confirmation (AID 2382).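 Note: NIH3T3 fibroblasts with HSF1-driven luciferase reporter stressed by proteasome inhibitor MG132; luminescence from HSF1-driven luciferase expression after 8 hours of MG132 stress.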 It is filed as functional.
Assay [11] in a line: Luminescence Cell-Based Dose Confirmation HTS to Identify Activators of 5'UTR Stem-Loop Driven Alpha-Synuclein mRNA Translation in H4 Neuroglioblastoma Cells. [Related pubchem assays: 1829 (Project Summary), 1814 (Primary HTS)]. It is filed as functional.
Assay [12] in a line: Luminescence Cell-Based Dose Response HTS to Identify Activators of Luciferase Translation or Activity in H4 […] Cells. [Related pubchem assays: 1829 (Project Summary), 1814 (Primary HTS)]. It counts as functional.
The test system of a further assay is H4. Put plainly: Luminescence Cell-Based Dose Response HTS to Identify Activators of 5'UTR Stem-Loop Driven Prion Protein mRNA Translation in H4 Neuroglioblastoma Cells. [Related pubchem assays: 1829 (Project Summary), 1814 (Primary HTS)]. The settings on record: Homo sapiens. It is filed as functional.

Chain of Luciferin 4-monooxygenase (P08659 whole entry): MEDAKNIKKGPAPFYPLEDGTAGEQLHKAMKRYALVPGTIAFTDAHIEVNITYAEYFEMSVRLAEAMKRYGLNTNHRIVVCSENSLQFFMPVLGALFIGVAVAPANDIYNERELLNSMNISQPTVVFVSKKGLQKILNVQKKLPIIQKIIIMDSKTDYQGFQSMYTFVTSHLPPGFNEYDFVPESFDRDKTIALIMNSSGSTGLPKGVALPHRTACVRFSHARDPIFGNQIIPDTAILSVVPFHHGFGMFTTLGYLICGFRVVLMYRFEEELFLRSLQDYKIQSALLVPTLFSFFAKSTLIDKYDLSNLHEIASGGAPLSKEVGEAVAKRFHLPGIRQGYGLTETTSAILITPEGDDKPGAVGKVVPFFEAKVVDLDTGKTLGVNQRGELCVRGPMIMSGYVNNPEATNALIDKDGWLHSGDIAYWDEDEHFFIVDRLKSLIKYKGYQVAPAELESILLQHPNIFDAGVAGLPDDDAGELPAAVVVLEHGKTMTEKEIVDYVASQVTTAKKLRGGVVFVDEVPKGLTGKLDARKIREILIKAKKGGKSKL
Chain of Cytochrome P450 2C19 (P33261 whole entry): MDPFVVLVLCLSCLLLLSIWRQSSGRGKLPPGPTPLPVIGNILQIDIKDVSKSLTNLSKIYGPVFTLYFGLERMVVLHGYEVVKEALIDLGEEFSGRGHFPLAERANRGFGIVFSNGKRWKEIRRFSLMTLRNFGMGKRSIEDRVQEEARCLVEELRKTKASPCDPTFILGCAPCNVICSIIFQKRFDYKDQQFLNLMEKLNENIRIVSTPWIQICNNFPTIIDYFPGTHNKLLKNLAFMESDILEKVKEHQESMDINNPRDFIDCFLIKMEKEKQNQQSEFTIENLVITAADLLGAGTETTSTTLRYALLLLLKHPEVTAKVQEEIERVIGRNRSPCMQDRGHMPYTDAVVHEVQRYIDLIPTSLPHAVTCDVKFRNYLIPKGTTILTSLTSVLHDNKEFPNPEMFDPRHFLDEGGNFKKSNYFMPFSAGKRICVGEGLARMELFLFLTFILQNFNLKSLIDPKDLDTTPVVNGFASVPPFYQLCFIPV

Consider `Nc1c(C(=O)OCC2CCCO2)c2nc3ccccc3nc2n1C1CCCC1` (centres undefined), for which the CC50 in [1] was 38.3 µM (active). Take `COc1ccc(/C=C/C(=O)NC(=S)Nc2cc3oc4ccccc4c3cc2OC)cc1`: the IC50 in assay [2] is recorded as > 50 µM (not active). On to `COc1ccccc1N1CCN(CC(=O)Nc2c(C)n[nH]c2C)CC1`, for which the IC50 in [3] was > 47.1 µM (inactive). Moreover, the EC50 in assay [4] is > 53 µM (inactive). For the compound `COC(=O)COc1ccc2c(-c3cccc([N+](=O)[O-])c3)cc(=O)oc2c1`, the IC50 in the assay “cells” was 2.9 µM (active). Also, at Cytochrome P450 2C19, the AC50 was 0.251 µM (inconclusive). For the compound `COc1cc2cnc(-c3ccccc3)c(-c3ccc(C(F)(F)F)cc3)c2cc1OC`, the CC50 in [1] is > 40 µM (active). With `Cc1ccc(C(=O)NCCCNc2ccccc2[N+](=O)[O-])cc1`, the IC50 in [2] was 25.2 µM (not active).

On to `O=C(Cn1cc(C(=O)c2ccco2)c2ccccc21)Nc1ccccc1`, for which the IC50 in assay [2] was 3.26 µM (not active).

On to `O=C(Nc1nccs1)C1CCN(S(=O)(=O)c2ccc(Cl)c(C(F)(F)F)c2)CC1`, for which the EC50 in [5] and in [6] was > 112 µM (not active) each time. For `O=C(c1ccccc1Br)N1CCN(c2ccccc2)CC1`, the EC50 in assay [7] is > 260 µM (inactive). Consider `COc1ccc(C2=NN(C(=O)CSC3=NN4CCCC(=O)N=C4S3)C(c3cccc(OC)c3OC)C2)cc1` (centres undefined), for which the EC50 in assay [5] and in assay [6] was > 112 µM (not active) throughout. In the case of `Cc1ccccc1Nc1nc(N)nc(CSc2ccccc2)n1`, in assay [7], the EC50 is 19.1 µM (active).

As to `Cc1c(NC(=O)c2c(N)n(-c3ccccc3)c3nc4ccccc4nc23)c(=O)n(-c2ccccc2)n1C`, the EC50 in [5] and in assay [6] was > 112 µM (not active) throughout. Consider `C=CCN(C(=O)CSc1nc2c(sc3ccccc32)c(=O)n1CCN(CC)CC)c1ccccc1`, for which the figures for the EC50 in assay [8] and in [9] were 0.606 µM (active) and 11 µM (active), respectively. Besides, in assay [1], the CC50 was 31.9 µM (active).

Take `Cn1c(CNc2cccc(Cl)c2)nnc1SCC#N`: the EC50 in [7] was > 260 µM (inactive). Consider `COc1ccc(C(=N)NOC(=O)Cc2ccccc2[N+](=O)[O-])cc1`, for which the IC50 in [2] is on record as 10.1 µM (not active). In the case of `CCSc1nnc(NC(=O)Cc2cccc(OC)c2)s1`, in assay [2], the IC50 is 2.28 µM (not active).

For `CCN(CC)c1nc(NN)nc(Nc2ccc(C)c(Cl)c2)n1`, the CC50 in [1] was 31.8 µM (active). For the compound `NS(=O)(=O)c1ccc(NC(=O)COC(=O)C23CC4CC(CC(C4)C2)C3)cc1`, the IC50 in assay [2] is reported as 3.33 µM (not active). Still for that read-out and setting: the value for `CCCc1cc(-c2nnc(S)n2Cc2ccccc2)cs1` was 22.1 µM (not active). On to `Cc1ccc(C)n1-c1ccc(C(=O)NN=C2CCCC2)cc1`, for which the EC50 in assay [5] and in [6] was > 112 µM (not active) throughout. For the compound `COc1cc(OC)nc(Oc2ccccc2C(=O)Oc2ccc(Cl)cc2)n1`, the EC50 in [10] is on record as > 195 µM (not active). In addition, the CC50 in [1] was > 40 µM (active). `CSc1nc2sc(-c3ccccc3)cc2c(=O)n1N`: the EC50 is 0.191 µM (active) in [5] and < 0.701 µM (active) in [6]. Regarding `CC(=O)c1cccc(NC(=O)c2c(F)c(F)c(F)c(F)c2F)c1`, in assay [2], the IC50 is 17.2 µM (not active).

Consider `CC1(C)Cc2c(sc3[nH]c(=O)n(CC(=O)NCC4CCCO4)c(=O)c23)CO1` (centres undefined), for which the IC50 in assay [3] is > 47.1 µM (inactive). Also, the EC50 in assay [4] is > 53 µM (inactive). Consider `COc1ccc(Cc2nnc(NC(=O)c3c(-c4ccccc4)noc3C)s2)cc1`, for which the EC50 in assay [5] and in assay [6] was > 112 µM (not active) throughout.

As to `Oc1ccc(N=Nc2n[nH]c(-c3ccc(Cl)cc3)n2)cc1`, the EC50 in assay [11] was > 120 µM (not active); in [12] it was 8.25 µM (active); with H4, > 120 µM (not active). Moreover, the CC50 in assay [1] was 28.1 µM (active). With `Cc1nc(NC(=O)c2ccccc2)sc1C1(C)CC(c2ccc(OC(F)(F)F)cc2)=NO1` (centres undefined), in [1], the CC50 is > 40 µM (active). On to `O=C(NCc1cccs1)c1ccc(C[S+]([O-])Cc2cccc(Cl)c2)o1` (centres undefined), for which, in assay [3], the IC50 was > 47.1 µM (inactive). The EC50 in [4] was > 53 µM (inactive). As for `CCc1cc(C(=O)NNC(=O)CCl)sc1C`, in assay [1], the CC50 is 23.8 µM (active).

With `Cc1cccc(NC(=O)CN2CCC(C(=O)c3ccc4c(c3)OCCO4)CC2)c1`, the EC50 in [5] and in assay [6] was > 112 µM (not active) throughout.

Take `CCCC1CC(C)(c2csc(Nc3ccc(OCC)cc3)n2)OC1=O` (centres undefined): the CC50 in [1] was > 40 µM (active). Turning to `COc1ccc(CC(=O)Nc2cccc(-c3cn4ccccc4n3)c2)cc1`, the EC50 in [5] and in assay [6] was > 112 µM (not active) throughout.

For the compound `COc1ccc(CN(CCc2c[nH]c3ccccc23)Cc2ccc(OC)cc2)cc1`, the IC50 in [3] was > 47.1 µM (inactive). The EC50 in assay [4] is > 53 µM (inactive). The matching figures for `O=C1CCC(C(=O)Nc2ccccc2N2CCOCC2)=NN1`: > 47.1 µM (inactive) and > 53 µM (inactive). The matching figures for `CCOC(=O)N1CCN(C(=O)Cn2cnc3ccccc3c2=O)CC1`: > 47.1 µM (inactive) and > 53 µM (inactive). The matching figures for `COC(=O)/C=c1/s/c(=C(\C#N)C(=O)NCc2ccco2)n(-c2ccccc2)c1=O`: > 47.1 µM (inactive) and > 53 µM (inactive). As for `CSC(=S)N/N=C/c1ccccc1`, the CC50 in [1] is > 40 µM (active). Turning to `CCN(CC)c1ccc(/C=N\NC(=O)c2cccc3cc[nH]c23)cc1`, the IC50 in assay [3] was > 47.1 µM (inactive). Besides, the EC50 in [4] was > 53 µM (inactive). `CCOC(=O)Cn1/c(=N/C(=O)CSC(C)=O)sc2ccccc21`: the EC50 in [5] and in assay [6] was > 112 µM (not active) each time. As to `O=C(CCN1CCOCC1)c1ccc(Cl)cc1`, the results for the EC50 in [8] and in [9] were 1.74 µM (active) and > 60 µM (not active), respectively. Further, the IC50 in the assay “cells” is 22.5 µM (active).

For the compound `C(=N\c1nc2ccccc2[nH]1)/c1cccs1`, the EC50 is 16.2 µM (active) in assay [5] and > 112 µM (not active) in assay [6].

In the case of `NC(=S)N/N=C/c1coc2c(ccc3ccccc32)c1=O`, in assay [2], the IC50 is on record as 24.6 µM (not active).
